Measured values taken from patent US9192675B2, “Dry powder inhaler and system for drug delivery” (MannKind Corporation, priority 2008, dated 2015).

Assay: Solubility of FDKP as a function of pH
Format: physicochemical
Description: These properties allow FDKP to crystallize under acidic conditions and the crystals self-assemble to form particles. The particles dissolve readily under physiological conditions where the pH is neutral. As noted, microparticles having a diameter of between about 0.5 and about 10 microns can reach the lungs, successfully passing most of the natural barriers. Particles in this size range can be readily prepared from FDKP.

Q: Which solubility (in acid) does the source give for `O=C(O)/C=C/C(=O)NCCCCC1NC(=O)C(CCCCNC(=O)/C=C/C(=O)O)NC1=O` (centres unmarked) [FDKP, bis-3,6-(N-fumaryl-4-aminobutyl)-2,5-diketopiperazine] here?
A: low solubility in acid

Q: What about the solubility (neutral or basic pH) of the same compound?
A: readily soluble at neutral or basic pH
